test system: Puccinia recondita tritici (leaf rust); test: Plant pathology screen (Test 1), leaf rust on wheat; conditions: in Triticum aestivum, foliar, read-out: LEAF RUST control rating

Compound	pest or weed control at 400 µg/mL
Cc1oc2ncnc(NCCc3ccc(C(C)(C)C)cc3)c2c1C [Example 20, N-[2-[4-(t-butyl)phenyl]ethyl]-5,6-dimethylfuro[2,3-d]pyrimidin-4-amine]	90 to 100%
Cc1oc2ncnc(OCCc3ccc(Cl)cc3)c2c1C [Example 53, 4-[2-(4-chlorophenyl)ethoxy]-5,6-dimethylfuro[2,3-d]pyrimidine]	90 to 100%
Cc1ccc(Oc2ncnc3oc(C)c(C)c23)cc1 [Example 62, 5,6-dimethyl-4-(4-methylphenoxy)furo[2,3-d]pyrimidine]	0 to 19%

test system: Erysiphe graminis tritici (powdery mildew); test: Plant pathology screen (Test 1), powdery mildew on wheat; conditions: Blumeria graminis, in Triticum aestivum, foliar, read-out: POWD MDEW control rating

Compound	pest or weed control at 400 µg/mL
Cc1oc2ncnc(NCCc3ccc(C(C)(C)C)cc3)c2c1C [Example 20, N-[2-[4-(t-butyl)phenyl]ethyl]-5,6-dimethylfuro[2,3-d]pyrimidin-4-amine]	0 to 19%
Cc1oc2ncnc(OCCc3ccc(Cl)cc3)c2c1C [Example 53, 4-[2-(4-chlorophenyl)ethoxy]-5,6-dimethylfuro[2,3-d]pyrimidine]	20 to 89%
Cc1ccc(Oc2ncnc3oc(C)c(C)c23)cc1 [Example 62, 5,6-dimethyl-4-(4-methylphenoxy)furo[2,3-d]pyrimidine]	90 to 100%

test system: Pseudoperonospora cubensis (downy mildew); test: Plant pathology screen (Test 1), downy mildew on squash; conditions: foliar, read-out: DOWN MDEW control rating

Compound	pest or weed control at 400 µg/mL
Cc1oc2ncnc(NCCc3ccc(C(C)(C)C)cc3)c2c1C [Example 20, N-[2-[4-(t-butyl)phenyl]ethyl]-5,6-dimethylfuro[2,3-d]pyrimidin-4-amine]	90 to 100%
Cc1oc2ncnc(OCCc3ccc(Cl)cc3)c2c1C [Example 53, 4-[2-(4-chlorophenyl)ethoxy]-5,6-dimethylfuro[2,3-d]pyrimidine]	0 to 19%
Cc1ccc(Oc2ncnc3oc(C)c(C)c23)cc1 [Example 62, 5,6-dimethyl-4-(4-methylphenoxy)furo[2,3-d]pyrimidine]	0 to 19%

test system: melon aphids (Aphis gossvpii Glover); test: Mite/insect screen, melon aphids; assay type: in vivo; conditions: Aphis; rate 200 ppm, sprayed leaves; read-out: MA results (percent mortality)
Outline: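 Percent mortality of melon aphids was assessed after standard exposure periods. Infested squash cotyledons had been sprayed on both leaf surfaces until runoff at 10 psi with water-diluted test solutions. Compounds were formulated in acetone/alcohol (50:50) containing emulsifiers.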

Compound	mortality at 200 ppm
Cc1oc2ncnc(NCCc3ccc(C(C)(C)C)cc3)c2c1C [Example 20, N-[2-[4-(t-butyl)phenyl]ethyl]-5,6-dimethylfuro[2,3-d]pyrimidin-4-amine]	0%
Cc1oc2ncnc(OCCc3ccc(Cl)cc3)c2c1C [Example 53, 4-[2-(4-chlorophenyl)ethoxy]-5,6-dimethylfuro[2,3-d]pyrimidine]	0%
Cc1ccc(Oc2ncnc3oc(C)c(C)c23)cc1 [Example 62, 5,6-dimethyl-4-(4-methylphenoxy)furo[2,3-d]pyrimidine]	0%

same assay, conditions: Aphis; rate 400 ppm, sprayed leaves; read-out: MA results (percent mortality)

Compound	mortality at 400 ppm
Cc1oc2ncnc(NCCc3ccc(C(C)(C)C)cc3)c2c1C [Example 20, N-[2-[4-(t-butyl)phenyl]ethyl]-5,6-dimethylfuro[2,3-d]pyrimidin-4-amine]	0%
Cc1oc2ncnc(OCCc3ccc(Cl)cc3)c2c1C [Example 53, 4-[2-(4-chlorophenyl)ethoxy]-5,6-dimethylfuro[2,3-d]pyrimidine]	60%
Cc1ccc(Oc2ncnc3oc(C)c(C)c23)cc1 [Example 62, 5,6-dimethyl-4-(4-methylphenoxy)furo[2,3-d]pyrimidine]	0%

same assay, conditions: rate 400 ppm, sprayed leaves

Compound	MA results (percent mortality)
Cc1oc2ncnc(NCCc3ccc(C(C)(C)C)cc3)c2c1C [Example 20, N-[2-[4-(t-butyl)phenyl]ethyl]-5,6-dimethylfuro[2,3-d]pyrimidin-4-amine]	0%

test system: Twospotted spider mites (Tetranychus urticae Koch); test: Mite/insect screen, twospotted spider mites; assay type: in vivo; conditions: Tetranychus urticae, rate 200 ppm, sprayed leaves; read-out: SM results (percent mortality)
Outline: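 Percent mortality, along with phytotoxicity, was read after standard exposure periods. Beforehand, mites established on both surfaces of squash cotyledons received a runoff spray (10 psi) of water-diluted compound formulated in acetone/alcohol with sulfonate/nonionic emulsifiers.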

Compound	mortality at 200 ppm
Cc1oc2ncnc(NCCc3ccc(C(C)(C)C)cc3)c2c1C [Example 20, N-[2-[4-(t-butyl)phenyl]ethyl]-5,6-dimethylfuro[2,3-d]pyrimidin-4-amine]	0%
Cc1oc2ncnc(OCCc3ccc(Cl)cc3)c2c1C [Example 53, 4-[2-(4-chlorophenyl)ethoxy]-5,6-dimethylfuro[2,3-d]pyrimidine]	0%
Cc1ccc(Oc2ncnc3oc(C)c(C)c23)cc1 [Example 62, 5,6-dimethyl-4-(4-methylphenoxy)furo[2,3-d]pyrimidine]	0%

same assay, conditions: Tetranychus urticae, rate 400 ppm, sprayed leaves; read-out: SM results (percent mortality)

Compound	mortality at 400 ppm
Cc1oc2ncnc(OCCc3ccc(Cl)cc3)c2c1C [Example 53, 4-[2-(4-chlorophenyl)ethoxy]-5,6-dimethylfuro[2,3-d]pyrimidine]	30%
Cc1ccc(Oc2ncnc3oc(C)c(C)c23)cc1 [Example 62, 5,6-dimethyl-4-(4-methylphenoxy)furo[2,3-d]pyrimidine]	0%

test system: Botrytis cinerea (gray mold); test: Plant pathology screen (Test 1), gray mold on grape berries; conditions: read-out: GRAY MOLD control rating

Compound	pest or weed control at 400 µg/mL
Cc1oc2ncnc(NCCc3ccc(C(C)(C)C)cc3)c2c1C [Example 20, N-[2-[4-(t-butyl)phenyl]ethyl]-5,6-dimethylfuro[2,3-d]pyrimidin-4-amine]	0 to 19%
Cc1oc2ncnc(OCCc3ccc(Cl)cc3)c2c1C [Example 53, 4-[2-(4-chlorophenyl)ethoxy]-5,6-dimethylfuro[2,3-d]pyrimidine]	0 to 19%
Cc1ccc(Oc2ncnc3oc(C)c(C)c23)cc1 [Example 62, 5,6-dimethyl-4-(4-methylphenoxy)furo[2,3-d]pyrimidine]	0 to 19%

test system: Southern corn rootworm (Diabrotica undecimpuctata howardi Barber); test: Mite/insect screen, corn rootworm; assay type: in vivo; conditions: CRW rate 24.00 ppm, soil
Outline: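 Five 2-3 instar larvae per cup were placed on sandy soil (15 g, with presoaked corn seed) treated 6–12 h earlier with 1 mL test solution, an emulsified acetone/alcohol formulation diluted in water. Cups kept at 23° C; mortality and phytotoxicity assessed as percent after standard exposures.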

Compound	CRW results (percent mortality)
Cc1oc2ncnc(NCCc3ccc(C(C)(C)C)cc3)c2c1C [Example 20, N-[2-[4-(t-butyl)phenyl]ethyl]-5,6-dimethylfuro[2,3-d]pyrimidin-4-amine]	0%

same assay, conditions: Diabrotica; CRW rate 12.00 ppm, soil; read-out: CRW results (percent mortality)

Compound	mortality at 12 ppm
Cc1oc2ncnc(NCCc3ccc(C(C)(C)C)cc3)c2c1C [Example 20, N-[2-[4-(t-butyl)phenyl]ethyl]-5,6-dimethylfuro[2,3-d]pyrimidin-4-amine]	0%
Cc1oc2ncnc(OCCc3ccc(Cl)cc3)c2c1C [Example 53, 4-[2-(4-chlorophenyl)ethoxy]-5,6-dimethylfuro[2,3-d]pyrimidine]	0%
Cc1ccc(Oc2ncnc3oc(C)c(C)c23)cc1 [Example 62, 5,6-dimethyl-4-(4-methylphenoxy)furo[2,3-d]pyrimidine]	0%

same assay, conditions: Diabrotica; CRW rate 24.00 ppm, soil; read-out: CRW results (percent mortality)

Compound	mortality at 24 ppm
Cc1oc2ncnc(NCCc3ccc(C(C)(C)C)cc3)c2c1C [Example 20, N-[2-[4-(t-butyl)phenyl]ethyl]-5,6-dimethylfuro[2,3-d]pyrimidin-4-amine]	0%
Cc1oc2ncnc(OCCc3ccc(Cl)cc3)c2c1C [Example 53, 4-[2-(4-chlorophenyl)ethoxy]-5,6-dimethylfuro[2,3-d]pyrimidine]	0%
Cc1ccc(Oc2ncnc3oc(C)c(C)c23)cc1 [Example 62, 5,6-dimethyl-4-(4-methylphenoxy)furo[2,3-d]pyrimidine]	0%

test system: Pyricularia oryzae (rice blast); test: whole plant or invertebrate; assay type: in vivo; conditions: foliar, read-out: RICE BLAST control rating

Compound	pest or weed control at 400 µg/mL
Cc1oc2ncnc(NCCc3ccc(C(C)(C)C)cc3)c2c1C [Example 20, N-[2-[4-(t-butyl)phenyl]ethyl]-5,6-dimethylfuro[2,3-d]pyrimidin-4-amine]	20 to 89%
Cc1oc2ncnc(OCCc3ccc(Cl)cc3)c2c1C [Example 53, 4-[2-(4-chlorophenyl)ethoxy]-5,6-dimethylfuro[2,3-d]pyrimidine]	20 to 89%
Cc1ccc(Oc2ncnc3oc(C)c(C)c23)cc1 [Example 62, 5,6-dimethyl-4-(4-methylphenoxy)furo[2,3-d]pyrimidine]	0 to 19%

test system: southern armyworm (Spodopetra eridania Cramer); test: Mite/insect screen, Southern armyworm; assay type: in vivo; conditions: Spodoptera eridania; rate 200 ppm, sprayed leaves; read-out: SAW results (percent mortality)
Outline: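 Southern armyworm larvae placed in Petri dishes with two excised squash leaves that had been sprayed to runoff (10 psi) with emulsified compound and air-dried for 1 h. Mortality in percent recorded after a standard exposure period; formulation acetone/alcohol plus Toximul R and S, water-diluted.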

Compound	mortality at 200 ppm
Cc1oc2ncnc(NCCc3ccc(C(C)(C)C)cc3)c2c1C [Example 20, N-[2-[4-(t-butyl)phenyl]ethyl]-5,6-dimethylfuro[2,3-d]pyrimidin-4-amine]	0%
Cc1oc2ncnc(OCCc3ccc(Cl)cc3)c2c1C [Example 53, 4-[2-(4-chlorophenyl)ethoxy]-5,6-dimethylfuro[2,3-d]pyrimidine]	0%
Cc1ccc(Oc2ncnc3oc(C)c(C)c23)cc1 [Example 62, 5,6-dimethyl-4-(4-methylphenoxy)furo[2,3-d]pyrimidine]	0%

same assay, conditions: Spodoptera eridania; rate 400 ppm, sprayed leaves; read-out: SAW results (percent mortality)

Compound	mortality at 400 ppm
Cc1oc2ncnc(NCCc3ccc(C(C)(C)C)cc3)c2c1C [Example 20, N-[2-[4-(t-butyl)phenyl]ethyl]-5,6-dimethylfuro[2,3-d]pyrimidin-4-amine]	0%
Cc1oc2ncnc(OCCc3ccc(Cl)cc3)c2c1C [Example 53, 4-[2-(4-chlorophenyl)ethoxy]-5,6-dimethylfuro[2,3-d]pyrimidine]	0%
Cc1ccc(Oc2ncnc3oc(C)c(C)c23)cc1 [Example 62, 5,6-dimethyl-4-(4-methylphenoxy)furo[2,3-d]pyrimidine]	0%

same assay, conditions: rate 400 ppm, sprayed leaves

Compound	SAW results (percent mortality)
Cc1oc2ncnc(NCCc3ccc(C(C)(C)C)cc3)c2c1C [Example 20, N-[2-[4-(t-butyl)phenyl]ethyl]-5,6-dimethylfuro[2,3-d]pyrimidin-4-amine]	0%

Source: patent US5486516A, “Furopyrimidine derivatives” (DowElanco, priority 1993, dated 1996)
